Test results from the NIST ThermoML archive (doi:10.1021/je060271a).

Conditions: 283.15 K, Liquid, Vibrating tube method

CCCCC(=O)OCC(COC(=O)CCCC)(COC(=O)CCCC)COC(=O)CCCC [pentaerythritol tetrapentanoate]
Conditions	mass density [kg/m3]
17085 kPa	1036.8
17119 kPa	1037
17147 kPa	1036.9
17175 kPa	1036.9
17208 kPa	1036.9
17236 kPa	1036.9
17270 kPa	1036.9
17299 kPa	1037
17327 kPa	1037
17355 kPa	1037.1
17390 kPa	1037
17419 kPa	1037.1
17449 kPa	1037.2
17478 kPa	1037
17514 kPa	1037
17542 kPa	1037.2
17572 kPa	1037.1
17607 kPa	1037.1
17637 kPa	1037.4
17666 kPa	1037.2
17702 kPa	1037.3
17732 kPa	1037.2
17762 kPa	1037.3
17798 kPa	1037.3
17829 kPa	1037.1
17860 kPa	1037.4
17890 kPa	1037.4
17927 kPa	1037.2
17958 kPa	1037.4
17995 kPa	1037.4
18026 kPa	1037.4
18058 kPa	1037.4
18097 kPa	1037.4
18130 kPa	1037.4
18164 kPa	1037.4
18197 kPa	1037.5
18237 kPa	1037.5
18262 kPa	1037.5
18283 kPa	1037.6
18309 kPa	1037.6
18330 kPa	1037.6
18356 kPa	1037.5
18377 kPa	1037.6
18399 kPa	1037.6
18421 kPa	1037.6
18446 kPa	1037.8
18468 kPa	1037.6
18490 kPa	1037.7
18517 kPa	1037.7
18539 kPa	1037.6
18561 kPa	1037.7
18588 kPa	1037.6
18610 kPa	1037.8
18631 kPa	1037.7
18657 kPa	1037.6
18680 kPa	1037.8
18702 kPa	1037.9
18728 kPa	1037.6
18750 kPa	1037.7
18778 kPa	1037.8
18800 kPa	1037.8
18823 kPa	1037.9
18845 kPa	1037.8
18874 kPa	1037.8
18896 kPa	1037.8
18919 kPa	1037.9
18947 kPa	1037.9
18970 kPa	1037.8
18993 kPa	1037.9
19021 kPa	1038
19044 kPa	1037.9
19067 kPa	1037.8
19094 kPa	1037.9
19118 kPa	1038
19142 kPa	1038.1
19166 kPa	1038
19191 kPa	1038
19219 kPa	1038
19243 kPa	1038
19266 kPa	1038
19295 kPa	1038.2
19319 kPa	1038
19343 kPa	1038
19372 kPa	1038.2
19397 kPa	1038.1
19420 kPa	1038.2
19450 kPa	1038.1
19475 kPa	1038.1
19501 kPa	1038.1
19525 kPa	1038.2
19550 kPa	1038.2
19579 kPa	1038.2
19603 kPa	1038.3
19633 kPa	1038.3
19658 kPa	1038.2
19682 kPa	1038.1
19707 kPa	1038.3
19738 kPa	1038.4
19763 kPa	1038.4
19788 kPa	1038.3
19818 kPa	1038.4
19844 kPa	1038.3
19874 kPa	1038.4
19900 kPa	1038.3
19925 kPa	1038.5
19951 kPa	1038.5
19982 kPa	1038.5
20007 kPa	1038.5
20033 kPa	1038.5
20064 kPa	1038.4
20090 kPa	1038.5
20121 kPa	1038.5
20147 kPa	1038.5
20174 kPa	1038.5
20200 kPa	1038.6
20232 kPa	1038.5
20259 kPa	1038.7
20286 kPa	1038.5
20318 kPa	1038.6
20344 kPa	1038.6
20376 kPa	1038.6
20403 kPa	1038.6
20430 kPa	1038.8
20462 kPa	1038.6
20490 kPa	1038.7
20517 kPa	1038.7
20550 kPa	1038.8
20578 kPa	1038.8
20607 kPa	1038.8
20634 kPa	1038.9
20667 kPa	1038.8
20695 kPa	1038.8
20723 kPa	1038.8
20756 kPa	1038.9
20784 kPa	1038.9
20812 kPa	1038.9
20846 kPa	1038.9
20875 kPa	1039
20904 kPa	1038.9
20938 kPa	1038.9
20966 kPa	1038.9
20995 kPa	1039
21029 kPa	1039
21058 kPa	1039.1
21086 kPa	1039.2
21116 kPa	1039
21151 kPa	1039
21180 kPa	1039.1
21215 kPa	1039.1
21244 kPa	1039.2
21274 kPa	1039.1
21303 kPa	1039.1
21340 kPa	1039.1
21369 kPa	1039.2
21399 kPa	1039.1
21435 kPa	1039.2
21464 kPa	1039.2
21495 kPa	1039.3
21531 kPa	1039.4
21561 kPa	1039.3
